# Test results reported in US4192871A, “Chemical compounds” (Glaxo Laboratories Limited, priority 1976, dated 1980).
# Counter-ions that a name gives are not always drawn.
# Key:
# pH of the salt solutions = assay type: physicochemical
# Protocol: (§1) A solution of the above free base (492 mg; 1 mmole) in ethanol (10 ml) was treated with a solution (10 ml) of M/10 citric acid in ethanol water (9:1) and the mixture evaporated in vacuo at low temperature to afford a froth.
# (§2) Table 5 summarises the properties and preparation of salts of the invention by one of the following methods:
# (§3) A. The 11β-aminoester (1 part) was added to a solution of the acid (1 molar part) in water and the mixture stirred or shaken until a clear solution was obtained. The solution was made up with water to the weight indicated, filtered through a membrane and the pH determined.
# (§4) B. The 11β-aminoester (1 part) was added to a solution of the acid (1 molar part) in water and the mixture stirred or shaken. As free base remained undissolved, further acid was added and the mixture agitated again. The solution was made up with water to the weight indicated and any material which then remained undissolved was collected in a weighed funnel and the weight of free base dissolved calculated and the pH of the solution measured.
# (§5) C. A mixture of the 11β-aminoester (1 part), a 0.1 M solution of the acid (1 molar part) and ethanol was evaporated in vacuo and dried to constant weight. The residue was dissolved in a little water and any material which then remained undissolved collected in a weighed funnel and the weight of free base dissolved calculated. The solution was made up with water to the weight indicated and its pH measured.
# (§6) D. The 11β-aminoester (1 part) was added to a solution of the acid (1 molar part) in water and the mixture stirred or shaken. The solution was made up with water to the weight indicated. The material remaining undissolved was collected in a weighed funnel and the weight of free base dissolved calculated and the pH of the solution measured.
# (§7) E. As in method C except that further acid was added to the residue after addition of the small amount of water.
# 11β-N,N-Diethylaminoacetoxy-2β-ethoxy-3α-hydroxy-5α-pregnan-20-one (1.45 g) was agitated with citric acid monohydrate (621 mg) in 0.9% w/v sodium chloride solution (steriflex^(R)) (130 ml.) at 20° for 16.5 hours. The resulting solution was stirred at 21° and N/5 sodium hydroxide solution in steriflex^(R) (10.5 ml) was added dropwise during 30 minutes, raising the pH from 3.63 to 4.52. The solution was diluted to 162.5 g so that the concentration of steroid was 9 mg/ml. The solution of the citrate was filtered through a membrane and finally filtered into 8 sterile ampoules.
# 11β-(N-Butyl-N-ethylaminoacetoxy)-3α-hydroxy-5α-pregnan-20-one (1.80 g) was agitated with citric acid monohydrate (793 mg) in 0.9% w/v sodium chloride solution (steriflex^(R)) (160 ml) at 20° for 19.5 hours. The resulting solution was slightly cloudy. This solution was stirred at 21° and N/5 sodium hydroxide solution in steriflex^(R) (5.8 ml) was added dropwise during 15 minutes, raising the pH from 3.62 to 4.00. The solution was diluted to 201.2 g so that the concentration of steroid was 9 mg/ml. The cloudiness was removed by filtration through a membrane and the clear solution of the citrate was filtered into 8 sterile ampoules.
# Sodium iodide (0.250 g) and diethylamine (0.5 ml) were added to a solution of 11β-chloroacetoxy-2β-ethoxy-3α-hydroxy-D-homo-5α-pregnan-20-one (0.250 g) in acetone (10 ml) and the mixture was left at room temperature for 3 days during which time a white solid precipated. Water was added and the yellow solution was concentrated in vacuo whereupon crystallisation occurred. The needles were filtered off and washed well with acetone/water yielding the title compound (0.201 g), m.p. 160°-73°, [α]D +60.8°. The above base (0.101 g) was stirred with citric acid monohydrate (0.042 g) in water (9.5 ml) for 21 hours. The solution was made up to 10.1 g by weight. The solid remaining out of solution was filtered off, dried and weighed. The solution was passed through a millipore filter giving an aqueous solution of the title compound, concentration 9.75 mg/ml, pH 3.66. […]
# [1] = dissolution of the 11β-aminoester salts in aqueous acid (Table 5 and Examples 101, 225-229); assay type: physicochemical
# Protocol: as §1, §2, §3, §4, §5, §6, §7
# The solid citric acid used was as its monohydrate.
# Sodium iodide (0.250 g) and diethylamine (0.5 ml) were added to a solution of 11β-chloroacetoxy-2β-ethoxy-3α-hydroxy-D-homo-5α-pregnan-20-one (0.250 g) in acetone (10 ml) and the mixture was left at room temperature for 3 days during which time a white solid precipated. Water was added and the yellow solution was concentrated in vacuo whereupon crystallisation occurred. The needles were filtered off and washed well with acetone/water yielding the title compound (0.201 g), m.p. 160°-73°, [α]D +60.8°. The above base (0.101 g) was stirred with citric acid monohydrate (0.042 g) in water (9.5 ml) for 21 hours. The solution was made up to 10.1 g by weight. The solid remaining out of solution was filtered off, dried and weighed. The solution was passed through a millipore filter giving an aqueous solution of the title compound, concentration 9.75 mg/ml, pH 3.66.
# The above base (0.096 g) was stirred in a solution of citric acid monohydrate (0.038 g) in water (8.5 ml) for 20 hours. A large proportion of the steroid remained out of solution. More citric acid (0.038 g) was added and the mixture stirred for a further 6 hours. The solution was made up to 9.6 g by weight and the solid remaining out of solution was filtered off, dried and weighed. The solution was passed through a millipore filter giving an aqueous solution of the title compound, concentration 9.5 mg/ml, pH 2.85.
# To a solution of citric acid monohydrate (52.5 mg) in water (2 ml) was added the above free base (115 mg). More water (8 ml) was added and the mixture was stirred for 72 hrs. A small amount of steroid remained out of solution and more citric acid (52.5 mg) was added. Within 5 mins. a clear solution was obtained which was made up to 11.5 g with water and filtered through a millipore filter yielding an aqueous solution of the title citrate, concentration 10 mg/ml, pH 3.0.
# The above free base (112 mg) was added to a solution of citric acid monohydrate (52.5 mg) in water (2 ml). More water (8 ml) was added and the mixture was swirled from time to time. […]
# [2] = aqueous solution of the salt, Table 5
# [3] = method B: further acid added, undissolved material weighed, WT. of solution 10 g, except Ex. 130 and 141: 9.2, 142: 9.23, 143, 144, 189 and 199: 9.8, 149: 10.6, 153: 7.9, 162 and 188: 9.5, 163: 68, 166: 10.4, 168: 10.7, 169: 10.9, 183: 8.05, 184 and 201: 9.83, 185: 7.1, 186: 9.3, 192: 10.07, 193: 6.4, 195: 6.8, 196: 7, 197: 7.2, 200: 10.1, 206: 15 g
# [4] = method C: ethanol evaporated, residue in water, undissolved material weighed, WT. of solution Ex. 118: 10, 120: 10.4, 148: 9.54, 152: 5.6, 154: 9.1, 155: 8.77, 156: 9.06, 157: 9.5, 158: 9.38, 159: 9.17, 179: 9.65, 180: 11.7, 182: 4.9, 202: 12.05, 213: 12, 214: 11.5, 215: 11.1, 216: 11.6, 217: 12.1 g
# [5] = method E: as C with further acid, WT. of solution Ex. 160: 6.12, 161: 7.8, 203: 12.7, 212: 12.125, 220: 10 g
SMILES,pH (pH of the salt solutions; [2]),"Dissolved aminoester [1, 3]",also measured
CCOC1CC2(C)C(CCC3C4CCC(C(C)=O)C4(C)CC(OC(=O)CNC(C)CC(C)C)C32)CC1O (stereo not shown) [Example 166],3.28,104 mg,–
CC(=O)C1CCC2C3CCC4CC(O)CCC4(C)C3C(OC(=O)CNC(C)CC(C)C)CC12C (stereo not shown) [Example 163],3.08,68 mg,–
CCCN(CCC)CC(=O)O[C@H]1C[C@]2(C)[C@@H](C(C)=O)CC[C@H]2[C@@H]2CC[C@H]3C[C@H](O)CC[C@]3(C)[C@H]21 [Example 215],3.63,–,"Dissolved aminoester [1, 4]: 111 mg"
CCC(C)CNCC(=O)O[C@H]1C[C@]2(C)[C@@H](C(C)=O)CC[C@H]2[C@@H]2CC[C@H]3C[C@H](O)CC[C@]3(C)[C@H]21 (stereo partly shown) [Example 129],3.64,–,"Dissolved aminoester ([1]; method A: clear solution, 1 molar part acid, made up with water to WT. of solution 10 g, except Ex. 121 and 150: 12, 123: 12.3, 124: 7.5, 129: 10.3, 135 and 139: 8.95, 164: 10.35, 170: 10.4, 181: 10.04, 187: 9.5, 210: 10.2, 221: 15 g): 92.3 mg"
CCCN(CCC)CC(=O)O[C@H]1C[C@]2(C)[C@@H](C(C)=O)CCC[C@H]2[C@@H]2CC[C@H]3C[C@H](O)[C@@H](OCC)C[C@]3(C)[C@H]21 [Example 226 citrate salt],–,–,"pH (pH of the salt solutions; aqueous solution of the citrate, filtered, 9.5-10 mg/ml): 2.85; concentration of aqueous solution of the citrate ([1]; citric acid monohydrate in water, filtered solution): 9500 µg/mL"
CCCCN(C)C(C)C(=O)O[C@H]1C[C@]2(C)[C@@H](C(C)=O)CC[C@H]2[C@@H]2CC[C@H]3C[C@H](O)CC[C@]3(C)[C@H]21 (stereo partly shown) [Example 182],3.43,–,"Dissolved aminoester [1, 4]: 49 mg"
CCCCN(C)CC(=O)O[C@H]1C[C@]2(C)[C@@H](C(C)=O)CC[C@H]2[C@@H]2CC[C@H]3C[C@H](O)[C@@H](Br)C[C@]3(C)[C@H]21 [Example 207],2.6,59 mg,–
CCCN(CCC)CC(=O)O[C@H]1C[C@]2(C)[C@@H](C(C)=O)CC[C@H]2[C@@H]2CC[C@H]3C[C@H](O)[C@@H](C)C[C@]3(C)[C@H]21 [Example 161],2.8,–,"Dissolved aminoester [1, 5]: 78 mg"
CCCN(CCC)CC(=O)O[C@H]1C[C@]2(C)[C@@H](C(C)=O)CC[C@H]2[C@@H]2CC[C@H]3C[C@H](O)CC[C@]3(C)[C@H]21 [Example 213],3.8,–,"Dissolved aminoester [1, 4]: 119 mg"
"CCCCN(CC)CC(=O)O[C@H]1C[C@]2(C)[C@@H](C(C)=O)CC[C@H]2[C@@H]2CC[C@H]3C[C@H](O)CC[C@]3(C)[C@H]21.O=C(O)CC(O)(CC(=O)O)C(=O)O [Example 222, 11β-(N-Butyl-N-ethylaminoacetoxy)-3α-hydroxy-5α-pregnan-20-one, citrate salt]",–,–,"pH (pH of the salt solutions; solution in 0.9% w/v saline, pH adjusted with sodium hydroxide solution, citrate salt): 3.97; pH (pH of the salt solutions; solution in 0.9% w/v saline, pH adjusted with sodium hydroxide solution, listed as Example 224, citrate salt): 4.00; pH (pH of the salt solutions; solution of the salt in saline, before any adjustment): 3.62; Dissolved aminoester ([1]; method A, 0.9% w/v saline in place of water, WT. of solution Ex. 122: 37.5 g, 222: 50 g): 500 mg"
CC(=O)[C@H]1CC[C@H]2[C@@H]3CC[C@H]4C[C@H](O)CC[C@]4(C)[C@H]3[C@@H](OC(=O)CNC(C(C)C)C(C)C)C[C@]12C [Example 144],2.79,61 mg,–
CC(=O)[C@H]1CC[C@H]2[C@@H]3CC[C@H]4C[C@H](O)CC[C@]4(C)[C@H]3[C@@H](OC(=O)CCN(C)C(C)CC(C)C)C[C@]12C (stereo partly shown) [Example 200],3.2,83 mg,–
CCCCN(CC)CC(=O)O[C@H]1C[C@]2(C)[C@@H](C(C)=O)CC[C@H]2[C@@H]2CC[C@H]3C[C@H](O)CC[C@]3(C)[C@H]21 [Example 220],3.6,–,"Dissolved aminoester [1, 5]: 100 mg"
CC(=O)[C@H]1CC[C@H]2[C@@H]3CC[C@H]4C[C@H](O)CC[C@]4(C)[C@H]3[C@@H](OC(=O)CN(C)C3CC3)C[C@]12C [Example 193],2.46,23 mg,–
CC(=O)[C@H]1CC[C@H]2[C@@H]3CC[C@H]4C[C@H](O)CC[C@]4(C)[C@H]3[C@@H](OC(=O)CN(C)[C@@H](C)CC(C)C)C[C@]12C [Example 199],3.12,88 mg,–
CCCCCCN(C)CC(=O)O[C@H]1C[C@]2(C)[C@@H](C(C)=O)CC[C@H]2[C@@H]2CC[C@H]3C[C@H](O)CC[C@]3(C)[C@H]21 [Example 189],2.98,93 mg,–
CCC(C)N(C)CC(=O)O[C@H]1C[C@]2(C)[C@@H](C(C)=O)CC[C@H]2[C@@H]2CC[C@H]3C[C@H](O)CC[C@]3(C)[C@H]21 (stereo partly shown) [Example 184],3.0,94.5 mg,–
CCN(CC(=O)O[C@H]1C[C@]2(C)[C@@H](C(C)=O)CC[C@H]2[C@@H]2CC[C@H]3C[C@H](O)CC[C@]3(C)[C@H]21)C(C)C [Example 194],3.56,–,"Dissolved aminoester ([1]; method D: 1 molar part acid, undissolved material weighed, WT. of solution 10 g, except Ex. 136: 8.95, 140: 9.52, 165 and 167: 10.1, 190 and 198: 9.8, 191: 8.9, 194: 6.6, 204: 10.09, 219: 10.6 g): 57 mg"
CCN(CC(=O)O[C@H]1C[C@]2(C)[C@@H](C(C)=O)CC[C@H]2[C@@H]2CC[C@H]3C[C@H](O)CC[C@]3(C)[C@H]21)CC(C)C [Example 195],2.98,59 mg,–
